Measurements published in patent publication US20030135033A1, “Compounds and methods for the identification and/ or validation of a target” (priority 2002, published 2003).

Legend:
[1] = test system: Hela cells; assay: Cell growth on matrigel; format: cell-based, human; conditions: 48 h transfection, then 48 to 72 h on matrigel, versus control GeneBloc
From the text: More particularly, a schematic pathway with PTEN inhibiting PI-3K activity is shown which would normally phosphorylate Akt thus leading to proliferation, survival and migration of HeLa cells as a model system for PTEN +/+ cells. FIG. 9 B presents the Western immunoblot analysis of an experiment studying the influence of PTEN specific antisense oligonucleotide or a control antisense nucleotide designated as mismatch GeneBloc™. PTEN is only present in the control sample, but is absent when PTEN-specific antisense oligonucleotides are used. The successful knockdown of PTEN causes phosphorylation of Akt, indicative of induction of the signalling pathway. […] Growth on matrigel is used as a surrogate in vitro assay for metastatic or invasive cell growth. […]
Loss of PTEN function has been correlated with an increased metastatic growth potential in late stage human cancers (Cantley, L. C. and Neel, B. G. (1999). New insights into tumor suppression: PTEN suppresses tumor formation by restraining the phosphoinositide 3-kinase/AKT pathway. Proc Natl Acad Sci U S A 96, 4240-4245; Ali, I. U. (2000). Gatekeeper for endometrium: the PTEN tumor suppressor gene. J Natl Cancer Inst 92, 861-863). […] HeLa cells expressing an inducible version of a constitutively active PI 3-kinase, p110* […] were analyzed in parallel. […]

[2] = test system: PTEN mRNA; assay: Relative PTEN RNA level by Taqman analysis; format: cell-based, rat; conditions: 3Y1 cells, parallel samples of BrdU experiment
Description: The RNA of cells transfected in 96-wells was isolated and purified using the Invisorb RNA HTS 96 kit (InVitek GmbH, Berlin). Inhibition of PTEN mRNA expression was detected by real time RT-PCR (Taqman) analysis using PTEN 5′ primer […] (SEQ ID No. 47), PTEN 3′ primer […] (SEQ ID No. 48) and the Taqman probe Fam-[…]-Tamra (SEQ ID No. 34). The reaction was carried out in 50 μl and assayed on the ABI PRISM 7700 Sequence detector (Applied Biosystems) according to the manufacturer's instructions under the following conditions: 48° C. for 30 min, 95° C. for 10 min, followed by 40 cycles of 15 sec at 95° C. and 1 min at 60° C.
3Y1 cells were used, because these untransformed rat fibroblasts are very sensitive to transfection conditons and are prone to arrest or even undergo apoptosis. Subconfluent 3Y1 cells in 96 wells were treated with PTEN GeneBloc 48, GeneBloc 53 or GBC as a control. On day 2 the cells were synchronized in low serum. During days 3 and 4 the cells were released into the cell cycle by serum stimulation at various time points. BrdU was added for the last 2 h of incubation. Untreated cells and cells that were treated with Aphidicolin for 24 h were used as controls. RNA knock down was analyzed in parallel samples. The rate of synthesis was determined via the amount of incorporated BrdU.

[3] = test system: 3Y1 cells; assay: UV-induced apoptosis in 3Y1 cells after GeneBloc treatment (cleaved caspase 3); format: cell-based, rat; conditions: 48 h GeneBloc treatment, UV irradiation
From the text: Activation of the P13K pathway interferes with caspase-mediated apoptosis through Akt-activation. Apoptotic stimuli may either be cytokines like TNF, or UV-irradiation. In the present example of which the results of a Western blot analysis are shown in FIG. 7B, UV-irradiation was used as to induce apoptosis. PTEN is an inhibitor of PI-3K action. […] Activated Akt blocks caspases-mediated apoptosis. Apoptosis was monitored by the presence of cleaved Caspase 3.
If knock down of PTEN expression mediated by third generation antisense molecules (GeneBlocs) results in a functional activation of PI 3-kinase signalling, then increased phosphorylation and activation of Akt should interfere with the effects of apoptotic stimuli. […] It was previously shown that rat embryo fibroblasts undergo apoptosis after UV irradiation and that this response can be inhibited by activation of the PI 3-kinase pathway, and specifically by activated Akt (Kulik, G., Klippel, A. and Weber, M. J. (1997). Antiapoptotic signalling by the insulin-like growth factor I receptor, phosphatidylinositol 3-kinase, and Akt. Mol Cell Biol 17, 1595-1606)). We exposed 3Y1 cells to UV light after 48 h GeneBloc treatment. 3 h after irradiation cell extracts were harvested and analyzed for the presence of cleaved caspase 3 which is indicative for apoptosis. […] Cells which were not exposed to UV light after transfection contained very little amounts of cleaved caspase 3.

[4] = test system: PTEN mRNA; assay: PTEN knock down by RNAi versus antisense oligonucleotide (Western blot, dose response); format: cell-based, human
Description: The cells were infected using any of these two constructs according to the methods described herein above.
The result of this experiment is depicted in FIG. 18. […] As a positive control an antisense oligonucleotide specific for PTEN referred to as GeneBloc 53 (disclosed above) was also applied to the respective expression system at different concentrations (60 nM, 15 nM, 3.75 nM and 0.93 nM).
To further illustrate the impact of RNAi which is specific for PTEN, on the ratio of PTEN to p110 a dose response was generated which is shown in FIG. 19. From FIG. 19 it may be taken that even at the lowest concentration, i. e. 0.03 nM, the PTEN specific RNAi still reduces the ratio of PTEN to p 110 to about one third of the respective control. […] This is in clear contrast to RNAi which is not specific for PTEN.

## ucuccuuTTGTTTCTGcuaacga (UCUCCUUTTGTTTCTGCUAACGA; chemistry not fully specified) [PTEN 53, third generation antisense oligonucleotide (GeneBloc) against PTEN]
[1]
  growth on matrigel: increased potential to form network structures on matrigel and grew better
[2]
  PTEN mRNA level (PTEN/actin RNA): remained downregulated
[3]
  phosphorylated Akt: phosphorylated Akt is generated
[4]; PTEN knockdown, Western blot
  concentration required compared to RNAi: requires higher concentrations compared to RNAi
[4]; antisense oligonucleotide at 60 nM, 15 nM, 3.75 nM and 0.93 nM
  PTEN expression (Western blot): allows for a specific knockdown of PTEN
